Key:
[1] = test system: LTB4 Synthesis; assay: Reverse Passive Arthus Reaction (pleurisy, LTB4 in pleural exudate); format: in vivo, male Lewis rats; conditions: 25 mg/kg p.o.
Description: 3. Reverse Passive Arthus Reaction
A reverse passive Arthus reaction is induced in the pleural cavity of male Lewis rats (150°-200 g; fasted overnight prior to use) by the intravenous administration of bovine serum albumin (BSA; 4 mg/0.2 ml) followed 30 minutes later by the injection of rabbit anti-BSA (1 mg/0.2 ml; lyophilized IgG fraction; Organon Teknika, West Chester, Pa.) into the right pleural space under halothane anesthesia. Drugs or vehicle (0.5% Tween-80) control are administered orally in a volume of 1 ml/100 g body weight at 1 hour prior to the anti-BSA. Animals are sacrificed at either the time of peak eicosanoid production (i.e. 5 minutes after anti-BSA for immunoreactive TxB2, 10 minutes for immunoreactive LTB4, 20 minutes for immunoreactive LTC4) or at the time of peak neutrophil infiltration (4 hours after anti-BSA) by CO2 inhalation. The pleural cavity is then exposed, the fluid exudate removed by gentle vacuum aspiration and the volume of exudate is recorded. For the determination of cellular infiltration, the pleural cavity is rinsed with 3 ml of 0.1% EDTA in sterile saline, and the recovered wash is pooled with the exudate. Cell number is determined on a model ZBI Coulter counter. For determination of eicosanoid production, undiluted pleural exudate is microfuged and the supernatant is extracted with ethanol (8-10 times volume). Extracts are either stored at -20° C., or are evaporated to dryness under a stream of N2 and reconstituted in radioimmunoassay (RIA) buffer.
Eicosanoids are quantitated by RIA according to the procedure specified by the RIA kit manufacturer (Advanced Magnetics, Cambridge, MA). Briefly, 100 μl of ^3 H-labeled eicosanoid and 100 μl of specific antibody ,are sequentially added to 100 μl of extracted pleural exudate in BGG-phosphate buffer which contains 0.01M phosphate, 0.1% bovine gamma globulin and 0.1% sodium azide at pH 7.0. Antibody-bound eicosanoid is separated from unbound eicosanoid by the addition of 750 μl of dextran (0.4%)-coated charcoal (Norit A) containing 0.1% sodium azide. The mixture is centrifuged at 2000 RPM at 5° C. for 15 minutes to pellet the charcoal and adsorbed unbound eicosanoid. Antibody-bound labeled eicosanoid is quantitated by counting in a liquid scintillation counter, and is correlated to concentration by a standard curve.

[2] = target: T1, 5-Lipoxygenase (Homo sapiens, UniProt P09917); assay: Inhibition of 5-Lipoxygenase in Human Whole Blood (ionophore A23187-stimulated LTB4); format: cell-based; conditions: 1 μM
T1 construct: endogenous in cells; host or cells: whole blood of male human donors (results per 10^6 neutrophils)
T1 sequence (P09917 1-674): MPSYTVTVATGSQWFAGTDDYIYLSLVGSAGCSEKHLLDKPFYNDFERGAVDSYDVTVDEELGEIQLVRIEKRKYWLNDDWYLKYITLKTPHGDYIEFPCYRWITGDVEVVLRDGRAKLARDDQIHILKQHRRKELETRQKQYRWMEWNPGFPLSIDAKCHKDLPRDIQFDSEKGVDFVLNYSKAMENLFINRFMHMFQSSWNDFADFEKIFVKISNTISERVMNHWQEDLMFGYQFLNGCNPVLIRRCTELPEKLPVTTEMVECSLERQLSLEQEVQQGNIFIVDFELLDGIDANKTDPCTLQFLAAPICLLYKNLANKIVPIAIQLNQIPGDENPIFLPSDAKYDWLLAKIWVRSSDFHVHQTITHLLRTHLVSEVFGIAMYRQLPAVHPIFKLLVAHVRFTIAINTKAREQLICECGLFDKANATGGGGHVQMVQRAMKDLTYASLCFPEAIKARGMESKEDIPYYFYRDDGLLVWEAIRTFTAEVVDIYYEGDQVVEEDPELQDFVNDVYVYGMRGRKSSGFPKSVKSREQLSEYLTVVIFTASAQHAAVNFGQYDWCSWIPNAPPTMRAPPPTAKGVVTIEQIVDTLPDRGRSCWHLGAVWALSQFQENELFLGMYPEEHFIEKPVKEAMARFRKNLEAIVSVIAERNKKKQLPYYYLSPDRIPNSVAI
Description: 1. Inhibition of 5-Lipoxygenase in Human Whole Blood
Blood is obtained in 50-100 ml quantities from male donors. White blood cell counts and differentials are made. Two ml of blood are placed in a 15 ml polypropylene test tube. Test compounds are solubilized in dimethylsulfoxide and diluted in 1:10 in 10% bovine serum albumin in phosphate buffered saline, pH 7.4 resulting in a final dimethylsulfoxide concentration of 0.1% in the blood. Then, solutions of test compounds are added to the blood in a shaking water bath at 37° C. for 10 minutes prior to the addition of 30 μM calcium ionophore (A23187, Sigma). After ionophore administration, whole blood samples are mixed and incubated for 20 minutes at 37° C. in a shaking water bath. Incubation is terminated by placing samples in an ice bath and immediately adding ethylene glycol-bis-(β-aminoethyl ether)-N, N,N',N'-tetraacetic acid (10 mM). Samples are mixed and centrifuged at 1200×g for 15 minutes at […]. Preparation of samples for evaluation by RIA or ELISA is carded out by the following protocol. Plasma is removed from sample tubes, placed in 15 ml polypropylene test tubes containing 8 ml methanol, and then vortexed to precipitate protein. Samples are stored at -70° C. overnight. The next day, samples are centrifuged at 200×g for 15 minutes at 4° C. to pellet the precipitate. Samples are dried in a Savant SpeedVac Concentrator, Model SVC 200H, reconstituted to original volume with ice cold RIA or ELISA buffer, and stored at -70° C. until assayed. The assay for eicosanoids (LTB4, TxB2, and PGE2) is performed as described by the manufacturer of the [^3 H]-RIA kit or ELISA kit (LTB4 -Amersham, TxB2 and PGE2 - Caymen Chemical).
The total eicosanoid level in 2 ml of blood is calculated and reported as ng/10^6 neutrophils. Significance is determined by a one-way analysis of variance with least significant difference (LSD) comparisons to control (p≤0.05) and IC50 's (μM) are determined by regression analysis (Finney, 1978). Drug effects are expressed as percent change from control values.

[3] = test system: Lipoxygenase; assay: Ex-Vivo Measurement of Lipoxygenase Inhibition in Orally Dosed Rats (LTB4 in A23187-stimulated blood); set-up: species or system Male Sprague Dawley rats; conditions: ex vivo rat, p.o., pretreatment 3 hr
Description: 2. […] After an interval of 3 or 6 hours, the rats were anesthetized with metofane (n =4/group) and blood collected in heparinized tubes. White blood cell counts and differentials were made. One ml of blood from each animal was placed in a 5 ml plastic tube in a shaker bath at 37° C. A23187 at a final concentration of 10 μM was added to the blood and the blood vortexed and incubated for 15 min at 37° C. with gentle shaking. Incubation was terminated by vortexing sample and centrifuging immediately at 1200 xG for 15 min at 4° C. The plasma was transferred to 15 ml plastic tubes each containing 8 ml of methanol to precipitate protein followed by vortexing. The samples were stored at -70° C. overnight and the next day the samples were centrifuged at 800 xG for 15 min to pellet the precipitate. The samples were dried in a Savant SpeedVac Concentrator Model SVC 200H and reconstituted to the original volume with cold RIA or ELISA buffer. The reconstituted samples were stored at -70° C. until assayed. The assay for LTB4 was perforated according to the directions of the [^3 H]RIA kit or ELISA kit (Seragen). The total metabolite level in 1 ml of blood is calculated and reported as ng/10^6 neutrophils. Significance is determined by a one-way analysis of variance with LSD comparisons to control (p<0.05).

[4] = test system: LT-dependent bronchoconstriction; assay: Inhibition of Bronchoconstriction in Guinea Pigs Induced by Exogenously Administered Antigen; format: in vivo, Male guinea pigs; conditions: 10 mg/kg i.v.
Description: 4. Inhibition of Brochoconstriction in Guinea Pigs Induced by Exogenously Administered Antigen
Male guinea pigs (Charles River, Wilmington, Mass.) were sensitized 3-4 weeks prior to antigen challenge by administration of 2 i.m. injections of ovalbumin, 1 into each hind limb (35 mg total). Sensitized animals (500-600 g) were fasted overnight prior to experimentation. Conscious animals were then dosed p.o. with drug or vehicle alone (0.5% Tween 80 in H2 O) at the indicated times prior to antigen challenge, or anesthetized animals were dosed i.v. with drug or vehicle alone (DMSO) 5 min prior to antigen challenge. Animals were anesthetized by urethane (2.8 g/kg i.p.). A carotid artery and jugular vein were cannulated to allow for the monitoring of blood pressure and the administration of drugs, respectively. The trachea was then cannulated and connected to a Harvard Apparatus rodent ventilator (S. Natick, Mass.). Spontaneous respiration was abolished by the administration of succinylcholine (2.5 mg/kg i.v.). The animals were then ventilated with room air at a rate of 65 breaths per min. Airway inflation pressure was measured using a Statham pressure transducer (Gould Instruments, Cleveland, Ohio) connected to the tracheal cannula via a side-arm and recorded on a Grass Instruments recorder (Quincy, Mass.). The tidal volume (approximately 10 cc/kg) was adjusted to give a baseline inflation pressure of 8-10 cm H2 O at end inspiration. Animals were then allowed 20 min to stabilize.
Following the stabilization period, animals were given i.v. injections of pyrilamine (5 mg/kg), propranolol (0.1 mg/kg) and indomethacin (10 mg/kg) at 15, 10 and 5 min, respectively, prior to antigen challenge. This pretreatment results in an LT-dependent bronchoconstriction following antigert challenge, which was accomplished by i.v. administration of ovalbumin (10 mg/kg). Only one bronchoconstriction per animal was induced. End-inspiratory inflation pressure (in cm H2 O over baseline) was measured at 5 min post-antigen challenge. A mean value and standard error for the % inhibition of control bronchoconstriction in each drug-treated group was then calculated.

Row | SMILES | % Inhibition LTB4 Synthesis [1] | inhibition at 1 µM [2] | % Inhibition of LTB4 ([3]; dose 25 (mg/kg)) | % Inhibition of LTB4 ([3]; dose 10 (mg/kg)) | Bronchoconstriction % Inhibition [4]
1 | Cc1oc(-c2ccccc2)nc1CCOc1cccc(CN(O)C(N)=O)c1 [Example 2, 1-Hydroxy-1-[3-[2-(5-methyl-2-phenyl-oxazol-4-yl)-ethoxy]-benzyl]-urea] | 53% | 51% | 21% |  | 
2 | COc1ccc(-c2nc(CCOc3ccc(CN(O)C(N)=O)cc3)c(C)o2)cc1 [Example 3, 1-Hydroxy-1-[4-[2-[2-(4-methoxy-phenyl)-5-methyl-oxazol-4-yl]-ethoxy]benzyl]-urea] |  | 57% | 32% |  | 
3 | Cc1oc(-c2ccccc2F)nc1CCOc1ccc(CN(O)C(N)=O)cc1 [Example 6, 1-[4-[2-[2-(2-Fluoro-phenyl)-5-methyl-oxazol-4-yl]-ethoxy]-benzyl]-1-hydroxy-urea] | 48% | 54% |  | 71% | 
4 | Cc1oc(-c2cccc(F)c2)nc1CCOc1ccc(CN(O)C(N)=O)cc1 [Example 7] | 38% | 63% |  | 79% | 
5 | Cc1oc(-c2ccc(F)cc2)nc1CCOc1ccc(CN(O)C(N)=O)cc1 [Example 8, 1-[4-[2-[2-(4-Fluoro-phenyl)-5-methyl-oxazol-4-yl)-ethoxy]-benzyl]-1-hydroxy-urea] |  | 70% |  | 66% | 
6 | Cc1oc(-c2ccccc2)nc1CCOc1ccc(CN(O)C(N)=O)cc1F [Example 12, 1-[3-Fluoro-4-[2-(5-methyl-2-phenyl-oxazol-4-yl)-ethoxy]-benzyl]-1-hydroxy-urea] | 58% | 71% |  | 52% | 
7 | NC(=O)N(O)Cc1ccc(OCCc2csc(-c3ccc(C(F)(F)F)cc3)n2)cc1 [Example 19, 1-Hydroxy-1-[4-[2-[2-(4-trifluoromethyl-phenyl)-thiazol-4-yl]-ethoxy]-benzyl]-urea] |  | 57% |  |  | 21%
8 | CC(=O)N(O)Cc1ccc(OCCN(C)c2nc3ccccc3o2)cc1 [Example 23, N-[4-[2-(Benzoxazol-2-yl-methyl-amino)-ethoxy]-benzyl]-N-hydroxy-acetamide] |  | 39% | 78% |  | 

From patent US5428048A, “Aryl-N-hydroxyureas as inhibitors of 5-lipoxygenase and anto-arteriosclerotic agents” (American Home Products Corporation, priority 1993, dated 1995)
